Assay results: patent US10399966B2, “Compounds for treatment of trypanosomes and neurological pathogens and uses thereof” (The University of North Carolina at Chapel Hill, priority 2016, dated 2019)
Read-outs that look alike come from different tables or passages of the source.

Columns and labels:
T. b. brucei = assay: In vitro antitrypanosomal activity against T. brucei (growth inhibition); assay type: cell-based, Trypanosoma brucei; settings: Trypanosoma brucei
Description: Primary hits from the screen were further characterized using a dose-response assay format to determine the EC50. In parallel, the cytotoxicities of these compounds were determined against a proliferating human hepatoma cell line (Huh7). […] SI—CC50/EC50). The final set of confirmed T. brucei hits consisted of 1035 inhibitors. […] In vitro antitrypanosomal activities against T. b. rhodesiense (STIB9000) and cytotoxicities against L6 rat myoblast cells were measured following established protocols (Orhan et al., Mar. Drugs 8:47 (2010). […] All wells including negative controls contained a final of 0.4% DMSO. After incubation of the plates at 37° C. for 48 h, the parasite density was determined using the CellTiter-Glo reagent (Promega), a firefly luciferase assay system that measures the amount of cellular ATP present in plate wells.

Trypanosoma cruzi = assay: Efficacy against T. cruzi in vitro; assay type: cell-based; settings: Trypanosoma cruzi; for EC90: read-out: T.cruzi EC90
[1] = Distribution between mouse plasma and brain (brain penetration, ip); assay type: in vivo; settings: for Brain/plasma ratio / [compound]Brain / [compound]Plasma: Table 14, mice, single ip dose 5 mg/kg, one hour post-dose; for [compound]Brain / [compound]Plasma: ± SEM of 3 mice (compound 3: 6 mice); for concentration at 1 h / Kp at 1 h: mouse, 5 mg/kg, Table 8; for concentration at 1 h: groups of 3 mice (compound 3: ± SEM of 6 mice); for Kp at 1 h: groups of 3 mice, read-out: Average brain/plasma ratio
Description: For distribution of compounds between mouse plasma and brain, mice (in groups of 3) were injected with test compounds (5 mg/kg ip) and sacrificed at the indicated times for collection of plasma and brain. Compound was dissolved in 0.4 mL of dosing solution (7% Tween 80, 3% ethanol, 5% DMSO, 0.9% saline) for ip injections. The brains were weighed and immediately frozen, then later homogenized in acetonitrile using a Dounce homogenizer. Prior to animal studies, recovery of test compound was carried out by adding a known amount to a mouse brain in the test extraction solvent and performing the homogenization. Compound recovery was determined by liquid chromatography/tandem mass spectrometry analysis relative to a standard compound amount. Blood was taken from the same mice in heparinized capillary tubes (Fisherbrand) for determination of compound concentration in plasma. The concentration of compound in the brain was obtained by dividing the moles of compound in the brain by the brain volume (obtained from the brain weight assuming 1 g is 1 mL) and correcting for the brain vasculature volume of 2.5% by weight.
Brain penetration studies (Table 14) were initially performed upon compounds 1, 2, and 3, but were expanded to include other compounds in order to explore the SAR of brain penetration. Groups of three mice were given single 5 mg/kg ip doses of the test compounds and were sacrificed 1 h post-dose.

human hepatocytes HepG2 = assay: Cytotoxicity against HepG2 cells; settings: for EC50: Homo sapiens, HepG2, read-out: HepG2 EC50; for EC90: read-out: HepG2 EC90, concentration required to inhibit growth by 90%, human hepatocytes
[2] = system: human lymphocytes CRL-8155; assay: Cytotoxicity against CRL-8155 cells; settings: human lymphoblasts; for EC50: read-out: CRL-8155 EC50, concentration required to inhibit growth by 50%; for EC90: read-out: CRL-8155 EC90, concentration required to inhibit growth by 90%
Description: The selectivity of each compound for the parasite over each of the two cell lines was calculated.

[3] = Table 8, read-out: T. brucei EC50
[4] = Table 11, read-out: T. b. brucei EC50
[5] = Table 9, read-out: T. brucei EC50
[6] = Table 9, read-out: T. brucei EC90
[7] = Table 10, read-out: T.cruzi EC50
[8] = brain and plasma, intraperitoneal
[9] = brain, intraperitoneal, read-out: Average [compound] brain
[10] = plasma, intraperitoneal, read-out: Average [compound] plasma

SMILES	EC50 (T. b. brucei; [4])	EC50 (T. b. brucei; [5])	EC90 (T. b. brucei; [6])	EC50 (human hepatocytes HepG2)	EC90 (human hepatocytes HepG2)	EC50 [2]	EC90 [2]	melting point	other results
O=C(Nc1ccc2sc(-c3ccc(F)c(F)c3)nc2c1)N1CC[C@@H](F)C1 [Compound 4, (R)-2-(3,4-Difluorophenyl)-5-(3-fluoro-N-pyrrolidylamido)benzothiazole]	0.326 µM	0.326 µM	0.491 µM	> 50 µM	> 50 µM	> 50 µM	> 50 µM	–	EC50 (T. b. brucei; Table 6, read-out: T. brucei EC50): 0.326 µM; EC50 (T. b. brucei; [3]): 0.326 µM; EC50 (Trypanosoma cruzi; Table 6, read-out: T. cruzi EC50): 0.491 µM; EC50 (Trypanosoma cruzi; [7]): 0.968 µM; EC90 (Trypanosoma cruzi; Table 10): 1.54 µM; Brain/plasma ratio [1]: 4.86 ± 1.055; [compound]Brain [1]: 6.35 ± 2.257 µM; [compound]Plasma [1]: 1.20 ± 0.270 µM; concentration at 1 h ([1]; in vivo, read-out: Average [compound] brain): 6350 ± 3910 nM; concentration at 1 h ([1]; in vivo, read-out: Average [compound] plasma): 1200 ± 467 nM; Kp at 1 h ([1]; in vivo): 4.86 ± 1.83
O=C(Nc1ccc2sc(-c3ccc(F)c(F)c3)nc2c1)N1CCC(F)(F)C1 [Compound 9, 2-(3,4-Difluorophenyl)-5-(3,3-difluoro-N-pyrrolidylamido)benzothiazole]	0.934 µM	0.934 µM	1.66 µM	> 50 µM	> 50 µM	> 50 µM	> 50 µM	227 to 228 °C	EC50 (T. b. brucei; [3]): 0.934 µM; Brain/plasma ratio [1]: 7.92 ± 0.693; [compound]Brain [1]: 21.7 ± 1.96 µM; [compound]Plasma [1]: 2.81 ± 0.452 µM; Kp at 1 h [1, 8]: 7.92 ± 1.2; concentration at 1 h [1, 9]: 21700 ± 3400 nM; concentration at 1 h [1, 10]: 2810 ± 784 nM
O=C(Nc1ccc2sc(-c3ccc(F)c(F)c3)nc2c1)N1CCC(C(F)(F)F)C1 (stereo not drawn) [Compound 10, 2-(3,4-Difluorophenyl)-5-[(3-trifluoromethyl)-N-pyrrolidylamido]benzothiazole]	–	1.69 µM	4.88 µM	–	–	–	–	171 to 175 °C	EC50 (T. b. brucei; [3]): 1.7 µM; Brain/plasma ratio [1]: 0.477 ± 0.052; [compound]Brain [1]: 1.97 ± 0.612 µM; [compound]Plasma [1]: 4.15 ± 1.368 µM; Kp at 1 h [1, 8]: 0.477 ± 0.09; concentration at 1 h [1, 9]: 1970 ± 1060 nM; concentration at 1 h [1, 10]: 4150 ± 2370 nM
CN(C)C1CCN(C(=O)Nc2ccc3sc(-c4ccc(F)c(F)c4)nc3c2)C1 (stereo not drawn) [Compound 11, 2-(3,4-Difluorophenyl)-5-(3-dimethylamino-N-pyrrolidylamido)benzothiazole]	–	1.7 µM	1.95 µM	–	–	–	–	147 to 149 °C	EC50 (T. b. brucei; [3]): 1.71 µM; Brain/plasma ratio [1]: 3.80 ± 0.331; [compound]Brain [1]: 3.00 ± 0.796 µM; [compound]Plasma [1]: 0.780 ± 0.202 µM; Kp at 1 h [1, 8]: 3.8 ± 0.57; concentration at 1 h [1, 9]: 3000 ± 1380 nM; concentration at 1 h [1, 10]: 780 ± 350 nM
O=C(Nc1ccc2sc(-c3ccccc3)nc2c1)c1cccs1 [Compound 18, 2-Phenyl-5-(2-thienylamido)benzothiazole]	0.882 µM	0.882 µM	2.13 µM	> 50 µM	> 50 µM	> 50 µM	> 50 µM	256 °C	–
O=C(Nc1ccc2sc(-c3ccccc3)nc2c1)N1CCSC1 [Compound 22]	–	1.24 µM	2.38 µM	–	–	–	–	177 to 179 °C	–
O=C(Nc1ccc2sc(-c3ccccc3)nc2c1)N1CC=CCC1 [Compound 24, N-(2-Phenylbenzo[d]thiazol-5-yl)-3,6-dihydropyridine-1(2H)-carboxamide]	–	1.12 µM	1.35 µM	–	–	–	–	199 to 200 °C	–
O=C(Nc1ccc2sc(-c3ccc(F)cc3)nc2c1)c1ccccc1 [Compound 25, 5-Benzamido-2-(4-fluorophenyl)benzothiazole]	–	1.92 µM	3 µM	–	–	–	–	232.5 to 233.5 °C	–
O=C(Nc1ccc2sc(-c3ccc(F)cc3)nc2c1)N1CCCC1 [Compound 26, 2-(4-Fluorophenyl)-5-(N-pyrrolidylamido)benzothiazole]	0.375 µM	0.375 µM	0.895 µM	> 50 µM	> 50 µM	> 50 µM	> 50 µM	211 to 213 °C	EC50 (Trypanosoma cruzi; [7]): 0.666 µM; EC90 (Trypanosoma cruzi; Table 10): 0.802 µM
O=C(Nc1ccc2sc(-c3ccc(F)cc3)nc2c1)N1CCCCC1 [Compound 27, 2-(4-Fluorophenyl)-5-(N-piperidylamido)benzothiazole]	0.427 µM	0.427 µM	0.737 µM	> 50 µM	> 50 µM	> 50 µM	> 50 µM	227 to 229 °C	EC50 (Trypanosoma cruzi; [7]): 1.67 µM; EC90 (Trypanosoma cruzi; Table 10): 1.95 µM
O=C(Nc1ccc2sc(-c3cccc(F)c3)nc2c1)c1ccccc1 [Compound 28, 5-Benzamido-2-(3-fluorophenyl)benzothiazole]	–	1.78 µM	3.62 µM	–	–	–	–	221 to 222 °C	–
CN1CCN(C(=O)Nc2ccc3sc(-c4cccc(F)c4)nc3c2)CC1 [Compound 30, N-(2-(3-Fluorophenyl)benzothiazol-5-yl)-4-methylpiperazine-1-carboxamide]	–	3.15 µM	7.55 µM	–	–	–	–	224 to 226 °C	–
O=C(Nc1ccc2sc(-c3ccccc3F)nc2c1)N1CCCC1 [Compound 32, 2-(2-Fluorophenyl)-5-(N-pyrrolidylamido)benzothiazole]	0.983 µM	0.983 µM	1.24 µM	> 50 µM	> 50 µM	> 50 µM	> 50 µM	207 to 208 °C	EC50 (Trypanosoma cruzi; [7]): 1.23 µM; EC90 (Trypanosoma cruzi; Table 10): 1.99 µM
O=C(Nc1ccc2sc(-c3ccc(F)cc3F)nc2c1)N1CCCC1 [Compound 34, 2-(2,4-Difluorophenyl)-5-(N-pyrrolidylamido)benzothiazole]	–	0.929 µM	1.48 µM	–	–	–	–	223 to 224 °C	EC50 (Trypanosoma cruzi; [7]): 1.73 µM; EC90 (Trypanosoma cruzi; Table 10): 2.02 µM
N#CC1CCN(C(=O)Nc2ccc3sc(-c4ccc(F)c(F)c4)nc3c2)C1 (stereo not drawn) [Compound 36, 2-(3,4-Difluorophenyl)-5-(3-cyano-N-pyrrolidylamido)benzothiazole]	–	2.85 µM	4.67 µM	–	–	–	–	222 to 224 °C	–
O=C(Nc1ccc2sc(-c3ccc(F)c(F)c3)nc2c1)N1CCC(O)C1 (stereo not drawn) [Compound 38, 2-(3,4-Difluorophenyl)-5-(3-hydroxy-N-pyrrolidylamido)benzothiazole]	–	7.68 µM	13.6 µM	–	–	–	–	211 to 213 °C	–
COC1CCN(C(=O)Nc2ccc3sc(-c4ccc(F)c(F)c4)nc3c2)C1 (stereo not drawn) [Compound 39, 2-(3,4-Difluorophenyl)-5-(3-methoxy-N-pyrrolidylamido)benzothiazole]	–	3.05 µM	4.59 µM	–	–	–	–	189 to 190.5 °C	–
O=C(Nc1ccc2sc(-c3ccc(F)c(F)c3)nc2c1)N1CCC(F)(F)CC1 [Compound 40, 2-(3,4-Difluorophenyl)-5-(4,4-difluoro-N-piperidylamido)benzothiazole]	–	2.98 µM	4.17 µM	–	–	–	–	222 to 225 °C	–
O=C(Nc1ccc2sc(-c3ccc(F)c(F)c3)nc2c1)N1C[C@@H](F)[C@@H](F)C1 [Compound 59, cis-2-(3,4-Difluorophenyl)-5-(3,4-difluoro-N-pyrrolidylamido)benzothiazole]	–	–	–	–	–	–	–	241 to 243 °C	EC50 (T. b. brucei; Table 17, read-out: T. b. brucei EC50): 0.34 µM; EC90 (T. b. brucei; Table 17, read-out: T. b. brucei EC90): 0.517 µM
